“And” between values parts separate entries of the source, which are not always exact repeats. Equal entries are not always repeated.
What was measured:
[1] = target: EcGUS (Escherichia coli GUS) (Escherichia coli, UniProt P05804); test: biochemical
[2] = target: LgGUS (Lactobacillus gasseri GUS) (Lactobacillus gasseri, UniProt Q9AHJ8); test: GUS inhibition assay, hydrolysis of 4-methylumbelliferyl-β-glucuronide, LgGUS; format: biochemical; design: GUS activity (hydrolysis rate of MUG) / 1/v: unit not given here
[3] = target: BdGUS (Bifidobacterium dentium GUS) (Bifidobacterium dentium, UniProt D2Q7B1); test: biochemical; design: GUS activity (hydrolysis rate of MUG) / 1/v: unit not given here
EcGUS = EcGUS (Escherichia coli, UniProt P05804); test: Isothermal titration calorimetry, EcGUS; format: binding; conditions: for entropy contribution to binding: sign (positive = favourable); for Kd / ΔG / ΔH / —TΔS: EcGUS, 298 K
BdGUS = BdGUS (Bifidobacterium dentium, UniProt D2Q7B1); test: biochemical; format: binding
[4] = target: T1, GUS activity in live E. coli cells (Escherichia coli, UniProt P05804); test: GUS activity in live E. coli cells; format: cell-based; conditions: E. coli cells (OD600 = 1.89) treated for 30 min, then GUS activity measured
T1 construct: endogenous in cells
Protocol: To examine if inhibitors 2–4 could inhibit GUS activity in vivo, E. coli cells (OD600 = 1.89) were treated with each of 2–4 for 30 min, after which GUS activity was measured. […]; 3, 18.6 nM; and 4, 3.69 nM (Supplementary Fig. 9a). […]. […] Additionally, to evaluate cell viability, E. coli cultures were treated with ampicillin (positive control), DMSO, or inhibitors 2–4 (100 μM) for 6 h.
Supplementary Figure 9 Inhibitors 2–4 sho w in hi biti on ag ai n st G US acti vity in l i ve E. co li cell s. (a) GUS activity was measured in live E. coli. Af t e r E. coli were incubated with DMSO or an inhibitor ( 2–4), GUS activity was measured using 4-methylumbelliferyl-β-glucuronide as the substrate. The release of fluorescent 4-methylumbelliferone was detected at 445 nm (excitation, 345 nm). Compared with the negative c ont rol (DMSO ), […]
[…]. (b) Colony formation assay. None of the inhibitors affected bacterial growth. As a negative control, E. coli cells were incubated with ampicillin (100 μg/mL). Results are expressed as the mean of triplicate samples ± SEM.
(1 picture or pasted object on this page, not shown here)

[5] = [Inhibitor 2] = 10 μM, [MUG] 0.0375 mM
[6] = [Inhibitor 2] = 10 μM, [MUG] 0.075 mM
[7] = [Inhibitor 2] = 10 μM, [MUG] 0.15 mM
[8] = [Inhibitor 2] = 10 μM, [MUG] 0.3 mM
[9] = [Inhibitor 2] = 20 μM, [MUG] 0.0375 mM
[10] = [Inhibitor 2] = 20 μM, [MUG] 0.075 mM
[11] = [Inhibitor 2] = 20 μM, [MUG] 0.15 mM
[12] = [Inhibitor 2] = 20 μM, [MUG] 0.3 mM
[13] = [Inhibitor 2] = 40 μM, [MUG] 0.0375 mM
[14] = [Inhibitor 2] = 40 μM, [MUG] 0.075 mM
[15] = [Inhibitor 2] = 40 μM, [MUG] 0.15 mM
[16] = [Inhibitor 2] = 40 μM, [MUG] 0.3 mM
[17] = [Inhibitor 2] = 80 μM, [MUG] 0.0375 mM
[18] = [Inhibitor 2] = 80 μM, [MUG] 0.075 mM
[19] = [Inhibitor 2] = 80 μM, [MUG] 0.15 mM
[20] = [Inhibitor 2] = 80 μM, [MUG] 0.3 mM
[21] = [Inhibitor 2] = 3.75 μM, [MUG] 0.375 mM
[22] = [Inhibitor 2] = 3.75 μM, [MUG] 0.75 mM
[23] = [Inhibitor 2] = 3.75 μM, [MUG] 1.5 mM
[24] = [Inhibitor 2] = 3.75 μM, [MUG] 3 mM
[25] = [Inhibitor 2] = 7.5 μM, [MUG] 0.375 mM
[26] = [Inhibitor 2] = 7.5 μM, [MUG] 0.75 mM
[27] = [Inhibitor 2] = 7.5 μM, [MUG] 1.5 mM
[28] = [Inhibitor 2] = 7.5 μM, [MUG] 3 mM
[29] = [Inhibitor 2] = 15 μM, [MUG] 0.375 mM
[30] = [Inhibitor 2] = 15 μM, [MUG] 0.75 mM
[31] = [Inhibitor 2] = 15 μM, [MUG] 1.5 mM
[32] = [Inhibitor 2] = 15 μM, [MUG] 3 mM
[33] = [Inhibitor 2] = 30 μM, [MUG] 0.375 mM
[34] = [Inhibitor 2] = 30 μM, [MUG] 0.75 mM
[35] = [Inhibitor 2] = 30 μM, [MUG] 1.5 mM
[36] = [Inhibitor 2] = 30 μM, [MUG] 3 mM
[37] = Tris buffer (250 mM NaCl, 20 mM Tris, pH 8.0)
[38] = phosphate buffer (250 mM NaCl, 20 mM KH2PO4, 100 mM Na2HPO4, pH 8.0)
[39] = BdGUS, Tris buffer (250 mM NaCl, 20 mM Tris, pH 8.0), 298 K

Chain of LgGUS (Lactobacillus gasseri GUS) (Q9AHJ8 1-598): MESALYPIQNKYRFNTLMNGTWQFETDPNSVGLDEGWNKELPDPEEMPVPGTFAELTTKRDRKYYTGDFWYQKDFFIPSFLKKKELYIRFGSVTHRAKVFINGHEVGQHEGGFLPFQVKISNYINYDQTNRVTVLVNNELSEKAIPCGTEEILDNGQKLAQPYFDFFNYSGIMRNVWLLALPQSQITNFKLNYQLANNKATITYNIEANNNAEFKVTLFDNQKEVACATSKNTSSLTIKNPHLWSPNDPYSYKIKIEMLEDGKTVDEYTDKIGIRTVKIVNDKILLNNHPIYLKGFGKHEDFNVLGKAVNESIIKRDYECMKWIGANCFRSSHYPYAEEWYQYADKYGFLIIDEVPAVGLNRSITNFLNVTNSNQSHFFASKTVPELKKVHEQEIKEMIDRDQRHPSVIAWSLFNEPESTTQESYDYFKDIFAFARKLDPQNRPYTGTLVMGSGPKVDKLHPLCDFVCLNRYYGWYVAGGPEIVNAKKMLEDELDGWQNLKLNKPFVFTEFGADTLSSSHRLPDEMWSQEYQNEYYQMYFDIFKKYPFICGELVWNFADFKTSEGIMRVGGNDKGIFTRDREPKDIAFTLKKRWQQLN
Chain of EcGUS (P05804 whole entry): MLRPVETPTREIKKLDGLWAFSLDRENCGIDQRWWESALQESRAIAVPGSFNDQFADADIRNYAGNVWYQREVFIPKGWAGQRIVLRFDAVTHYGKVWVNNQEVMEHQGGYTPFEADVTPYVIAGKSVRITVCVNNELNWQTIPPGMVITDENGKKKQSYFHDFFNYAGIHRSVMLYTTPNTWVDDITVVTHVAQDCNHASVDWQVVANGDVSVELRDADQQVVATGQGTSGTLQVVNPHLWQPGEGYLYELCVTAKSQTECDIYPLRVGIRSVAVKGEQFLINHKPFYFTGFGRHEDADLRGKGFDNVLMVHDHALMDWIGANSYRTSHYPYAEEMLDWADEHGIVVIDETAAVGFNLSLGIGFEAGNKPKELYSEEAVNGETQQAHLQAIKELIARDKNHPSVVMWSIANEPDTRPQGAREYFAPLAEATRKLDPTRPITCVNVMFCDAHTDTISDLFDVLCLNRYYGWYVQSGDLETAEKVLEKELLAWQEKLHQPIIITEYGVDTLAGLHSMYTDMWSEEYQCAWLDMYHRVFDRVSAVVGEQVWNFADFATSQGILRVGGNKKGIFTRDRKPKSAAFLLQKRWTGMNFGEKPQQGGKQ
Chain of BdGUS (D2Q7B1 entry or part of it): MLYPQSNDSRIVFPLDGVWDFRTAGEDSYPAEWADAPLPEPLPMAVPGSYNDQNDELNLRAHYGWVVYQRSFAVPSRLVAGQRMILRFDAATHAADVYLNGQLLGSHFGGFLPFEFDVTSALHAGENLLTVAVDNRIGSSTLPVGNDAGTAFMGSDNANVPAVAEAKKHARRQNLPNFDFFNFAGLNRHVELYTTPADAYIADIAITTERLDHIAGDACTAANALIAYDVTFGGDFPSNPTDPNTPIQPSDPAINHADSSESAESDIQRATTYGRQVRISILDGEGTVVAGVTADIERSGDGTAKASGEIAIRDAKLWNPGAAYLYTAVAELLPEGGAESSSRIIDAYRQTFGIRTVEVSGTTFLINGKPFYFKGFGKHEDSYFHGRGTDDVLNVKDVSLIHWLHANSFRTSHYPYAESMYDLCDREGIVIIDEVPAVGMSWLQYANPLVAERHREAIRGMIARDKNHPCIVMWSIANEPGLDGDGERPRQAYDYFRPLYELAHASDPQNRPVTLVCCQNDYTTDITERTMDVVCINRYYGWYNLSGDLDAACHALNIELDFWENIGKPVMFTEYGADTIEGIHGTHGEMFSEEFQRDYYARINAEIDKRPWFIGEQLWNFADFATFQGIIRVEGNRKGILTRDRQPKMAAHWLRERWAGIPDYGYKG
Chain of BdGUS (Bifidobacterium dentium GUS) (D2Q7B1 1-668): as the sequence (D2Q7B1 entry or part of it) above
Chain of EcGUS (Escherichia coli GUS) (P05804 whole entry): as the sequence (P05804 whole entry) above
T1 sequence (P05804 whole entry): as above

## CCC[C@@H]1NC[C@@H](O)[C@H](O)[C@H]1C(=O)O [Inhibitor 2, C6-propyl UIFG]
[1]; 50 mM HEPES pH 7.5, 37 °C
  Ki: 0.035 ± 0.009 µM
[1]; source data of Table 1, from plot of apparent Km against [inhibitor] (μM)
  Ki: 0.0352 µM
[2]; LgGUS, 50 mM sodium acetate pH 4.5, 37 °C
  Ki: 18.8 ± 3.92 µM
[2]; [5]
  1/v: 0.2959 and 0.2974 and 0.2686
  GUS activity (hydrolysis rate of MUG): 4192.53 and 4171.53 and 4614.39
[2]; [6]
  1/v: 0.2107 and 0.1906 and 0.2077
  GUS activity (hydrolysis rate of MUG): 5869.97 and 6487.03 and 5954.69
[2]; [7]
  1/v: 0.1628 and 0.149 and 0.1679
  GUS activity (hydrolysis rate of MUG): 7584.59 and 8286.19 and 7358.86
[2]; [8]
  1/v: 0.1383 and 0.1264 and 0.1356
  GUS activity (hydrolysis rate of MUG): 8920.98 and 9760.49 and 9099.17
[2]; [9]
  1/v: 0.3501 and 0.314 and 0.3449
  GUS activity (hydrolysis rate of MUG): 3549.69 and 3952.79 and 3602.4
[2]; [10]
  1/v: 0.2306 and 0.2185 and 0.2316
  GUS activity (hydrolysis rate of MUG): 5367.33 and 5663.13 and 5345.77
[2]; [11]
  1/v: 0.1785 and 0.1636 and 0.1746
  GUS activity (hydrolysis rate of MUG): 6921.34 and 7548.25 and 7076.25
[2]; [12]
  1/v: 0.1408 and 0.1323 and 0.1394
  GUS activity (hydrolysis rate of MUG): 8767.09 and 9326.73 and 8851.1
[2]; [13]
  1/v: 0.4229 and 0.3884 and 0.4078
  GUS activity (hydrolysis rate of MUG): 2945.2 and 3203.76 and 3052.97
[2]; [14]
  1/v: 0.2757 and 0.2635 and 0.2787
  GUS activity (hydrolysis rate of MUG): 4496.55 and 4702.63 and 4448.51
[2]; [15]
  1/v: 0.1987 and 0.186 and 0.1977
  GUS activity (hydrolysis rate of MUG): 6224 and 6644.75 and 6252.92
[2]; [16]
  1/v: 0.1513 and 0.1407 and 0.1527
  GUS activity (hydrolysis rate of MUG): 8157.58 and 8770.43 and 8083.43
[2]; [17]
  1/v: 0.6318 and 0.5917 and 0.6372
  GUS activity (hydrolysis rate of MUG): 1984.8 and 2116.68 and 1968.46
[2]; [18]
  1/v: 0.3742 and 0.3532 and 0.3763
  GUS activity (hydrolysis rate of MUG): 3323.3 and 3518.37 and 3305.44
[2]; [19]
  1/v: 0.2434 and 0.2308 and 0.2421
  GUS activity (hydrolysis rate of MUG): 5087.86 and 5362.93 and 5115.03
[2]; [20]
  1/v: 0.1723 and 0.1599 and 0.1688
  GUS activity (hydrolysis rate of MUG): 7171.31 and 7724.06 and 7316.31
[3]; BdGUS, 50 mM HEPES pH 7.5, 37 °C
  Ki: 4.9 ± 1.2 µM
[3]; [21]
  1/v: 0.7586 and 0.7898 and 0.7689
  GUS activity (hydrolysis rate of MUG): 0.2944 and 0.2827 and 0.2904
[3]; [22]
  1/v: 0.5053 and 0.4969 and 0.4765
  GUS activity (hydrolysis rate of MUG): 0.4419 and 0.4494 and 0.4686
[3]; [23]
  1/v: 0.3454 and 0.3517 and 0.3523
  GUS activity (hydrolysis rate of MUG): 0.6465 and 0.6349 and 0.6338
[3]; [24]
  1/v: 0.3078 and 0.2975 and 0.297
  GUS activity (hydrolysis rate of MUG): 0.7254 and 0.7507 and 0.7517
[3]; [25]
  1/v: 0.9443 and 1.067 and 1.0389
  GUS activity (hydrolysis rate of MUG): 0.2365 and 0.2092 and 0.2149
[3]; [26]
  1/v: 0.6301 and 0.6229 and 0.6281
  GUS activity (hydrolysis rate of MUG): 0.3544 and 0.3585 and 0.3555
[3]; [27]
  1/v: 0.4203 and 0.4167 and 0.4011
  GUS activity (hydrolysis rate of MUG): 0.5313 and 0.5358 and 0.5568
[3]; [28]
  1/v: 0.3397 and 0.3356 and 0.3208
  GUS activity (hydrolysis rate of MUG): 0.6574 and 0.6654 and 0.6962
[3]; [29]
  1/v: 1.396 and 1.589 and 1.568
  GUS activity (hydrolysis rate of MUG): 0.1599 and 0.1405 and 0.1424
[3]; [30]
  1/v: 0.9143 and 0.8906 and 0.8101
  GUS activity (hydrolysis rate of MUG): 0.2442 and 0.2507 and 0.2757
[3]; [31]
  1/v: 0.5734 and 0.5628 and 0.516
  GUS activity (hydrolysis rate of MUG): 0.3894 and 0.3968 and 0.4327
[3]; [32]
  1/v: 0.4154 and 0.412 and 0.4013
  GUS activity (hydrolysis rate of MUG): 0.5375 and 0.5419 and 0.5564
[3]; [33]
  1/v: 2.375 and 2.7756 and 2.7044
  GUS activity (hydrolysis rate of MUG): 0.09401 and 0.08045 and 0.08257
[3]; [34]
  1/v: 1.493 and 1.508 and 1.184
  GUS activity (hydrolysis rate of MUG): 0.1495 and 0.1481 and 0.1887
[3]; [35]
  1/v: 0.8717 and 0.8385 and 0.8277
  GUS activity (hydrolysis rate of MUG): 0.2562 and 0.2663 and 0.2698
[3]; [36]
  1/v: 0.5634 and 0.5659 and 0.5111
  GUS activity (hydrolysis rate of MUG): 0.3964 and 0.3946 and 0.4369
EcGUS; EcGUS in Tris buffer
  ΔΔH1–2 (enthalpy penalty of 2 relative to 1): +6.2 kcal mol^−1
  –TΔΔS1–2 (2 relative to 1): –5.6 kcal mol^−1
  entropy contribution to binding: +7.1 kcal mol^−1
EcGUS; EcGUS in phosphate buffer
  ΔΔH1–2 (enthalpy penalty of 2 relative to 1): +5.5 kcal mol^−1
  –TΔΔS1–2 (2 relative to 1): –4.6 kcal mol^−1
  entropy contribution to binding: +5.0 kcal mol^−1
EcGUS; [37]
  Kd: 0.06 ± 0.0049 µM
  ΔG: –10.01 ± 0.58 kcal/mol
  ΔH: –2.90 ± 0.23 kcal/mol
  —TΔS: –7.11 ± 0.82 kcal/mol
EcGUS; [38]
  Kd: 0.28 ± 0.05 µM
  ΔG: –8.96 ± 0.09 kcal/mol
  ΔH: –3.99 ± 0.06 kcal/mol
  —TΔS: –4.97 ± 0.15 kcal/mol
BdGUS; BdGUS in Tris buffer
  ΔΔH1–2 (enthalpy penalty of 2 relative to 1): +8.5 kcal mol^−1
  –TΔΔS1–2 (2 relative to 1): -6.2 kcal/mol
BdGUS; BdGUS in Tris buffer, sign (positive = favourable)
  entropy contribution to binding: +4.6 kcal mol^−1
BdGUS; [39]
  Kd: 14.5 ± 3.55 µM
  ΔG: –6.60 ± 0.15 kcal/mol
  ΔH: –1.97 ± 0.15 kcal/mol
  —TΔS: –4.64 ± 0.30 kcal/mol
[4]
  IC50: 1.2 µM

From paper PMC7933434, “Entropy-driven binding of gut bacterial β-glucuronidase inhibitors ameliorates irinotecan-induced toxicity” (Communications Biology, 2021)
